Where “and” joins values, the source holds several entries; their conditions need not be identical. Identical values can stand only once. One block for each molecule: values may come before it.
Experiments:
[1] = biological target: T1, UGT2B7 (Homo sapiens, UniProt P16662); experiment: Glucuronidation by expressed UGT2B7
T1 sequence (P16662 24-529): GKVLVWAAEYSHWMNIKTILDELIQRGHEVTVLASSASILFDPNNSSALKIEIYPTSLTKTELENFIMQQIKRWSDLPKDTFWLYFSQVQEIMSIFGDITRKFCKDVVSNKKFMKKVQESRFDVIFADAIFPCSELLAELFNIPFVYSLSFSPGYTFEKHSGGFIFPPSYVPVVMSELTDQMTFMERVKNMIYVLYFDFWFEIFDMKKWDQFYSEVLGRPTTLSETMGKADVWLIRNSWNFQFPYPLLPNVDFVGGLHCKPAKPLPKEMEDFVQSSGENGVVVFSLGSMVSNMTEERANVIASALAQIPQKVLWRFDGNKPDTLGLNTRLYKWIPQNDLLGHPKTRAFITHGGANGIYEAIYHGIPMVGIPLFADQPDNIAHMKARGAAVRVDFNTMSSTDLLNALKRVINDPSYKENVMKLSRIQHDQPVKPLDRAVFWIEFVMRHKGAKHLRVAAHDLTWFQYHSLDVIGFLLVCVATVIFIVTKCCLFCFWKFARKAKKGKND
Method: (§1) The reaction was terminated by adding ice-cold acetonitrile. […] All experiments were performed in triplicate.
(§2) The gradient elution program was the same as the UPLC condition of the structural identification of wushanicaritin glucuronides above. The detection wavelength was set at 270 nm, and the injection volume was 8 µL.
(§3) The parameter were as follow. V is the formation rate of the product. Vmax is the maximal velocity. […] Ksi is the substrate inhibition constant. […] (1) V=Vmax ×[S]/Km+[S] (2) V=Vmax ×[S]/Km + [S](1+[S]/Ksi)
(§4) The contribution of individual expressed UGT enzymes to wushanicaritin glucuronidation in HLM was evaluated by the relative activity factor (RAF) approach as described in previous studies. The relative activity factor was defined as the activity ratio of HLM to an expressed UGT enzyme (Supersome) toward a probe substrate for this enzyme using Equation (3). The relative amount of wushanicaritin glucuronidation in HLM attributed to an expressed UGT enzyme was estimated by multiplying the glucuronidation activity (i.e., the intrinsic clearance) derived with this enzyme by the corresponding RAF. […] The contributions of individual UGT enzyme were calculated according to Equation (4). (3) RAF=CLint{probe,pHLM}/CLint{probe,Supersome} (4) Contribution of UGTs=CLint(wushanica ritin,UGTs)/CLint(wushanica ritin,pHLM)×RAF

[2] = Glucuronidation by pooled human liver microsomes (HLM), UDPGA-supplemented; format: in vitro ADME; conditions: for microsomal CLint / Km: human, pooled liver microsomes
Method: as §1, §3

[3] = biological target: T2, expressed human UGT1A3 (Homo sapiens, UniProt P35503); experiment: Glucuronidation by expressed UGT1A3; format: in vitro ADME; conditions: relative activity factor for UGT1A3 = CLint(probe, pHLM)/CLint(probe, Supersome)
T2 construct: purchased Corning Biosciences
T2 sequence (P35503 29-534): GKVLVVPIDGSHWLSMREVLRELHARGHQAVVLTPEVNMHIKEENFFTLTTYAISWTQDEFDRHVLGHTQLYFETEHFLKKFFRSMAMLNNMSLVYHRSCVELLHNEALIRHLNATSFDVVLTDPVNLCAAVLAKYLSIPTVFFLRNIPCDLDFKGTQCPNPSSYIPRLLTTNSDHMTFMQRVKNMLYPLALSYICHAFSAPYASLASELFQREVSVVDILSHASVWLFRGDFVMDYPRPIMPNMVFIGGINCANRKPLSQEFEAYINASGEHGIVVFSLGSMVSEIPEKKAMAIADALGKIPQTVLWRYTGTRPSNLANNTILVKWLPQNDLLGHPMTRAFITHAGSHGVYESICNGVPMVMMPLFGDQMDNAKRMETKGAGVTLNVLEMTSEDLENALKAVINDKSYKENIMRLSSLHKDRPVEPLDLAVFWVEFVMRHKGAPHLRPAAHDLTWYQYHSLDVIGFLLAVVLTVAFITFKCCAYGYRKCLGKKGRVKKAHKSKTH
Method: as §1
(§5) A series of working solutions of wushanicaritin were determined by the Acquity™ UPLC I-Class system equipped with a BEH C18 column (2.1 mm × 50 mm, 1.7 µm, Waters, Ireland, Part No. 186002350). The gradient elution program was the same as the UPLC condition of the structural identification of wushanicaritin glucuronides above. The detection wavelength was set at 270 nm, and the injection volume was 8 µL.
as §3
as §4, with “(3) RAF=CLint{probe,pHLM}/CLint{probe,Supersome} (4) Contribution of UGTs=CLint(wushanica ritin,UGTs)/CLint(wushanica ritin,pHLM)×RAF” left out

[4] = biological target: T3, UGT1A3 (Homo sapiens, UniProt P35503); experiment: Glucuronidation by expressed UGT1A3; format: in vitro ADME; conditions: human, expressed UGT1A3 (Supersome); probe substrate glucuronidation; UGT1A3
T3 construct: purchased Corning Biosciences
T3 sequence (P35503 29-534): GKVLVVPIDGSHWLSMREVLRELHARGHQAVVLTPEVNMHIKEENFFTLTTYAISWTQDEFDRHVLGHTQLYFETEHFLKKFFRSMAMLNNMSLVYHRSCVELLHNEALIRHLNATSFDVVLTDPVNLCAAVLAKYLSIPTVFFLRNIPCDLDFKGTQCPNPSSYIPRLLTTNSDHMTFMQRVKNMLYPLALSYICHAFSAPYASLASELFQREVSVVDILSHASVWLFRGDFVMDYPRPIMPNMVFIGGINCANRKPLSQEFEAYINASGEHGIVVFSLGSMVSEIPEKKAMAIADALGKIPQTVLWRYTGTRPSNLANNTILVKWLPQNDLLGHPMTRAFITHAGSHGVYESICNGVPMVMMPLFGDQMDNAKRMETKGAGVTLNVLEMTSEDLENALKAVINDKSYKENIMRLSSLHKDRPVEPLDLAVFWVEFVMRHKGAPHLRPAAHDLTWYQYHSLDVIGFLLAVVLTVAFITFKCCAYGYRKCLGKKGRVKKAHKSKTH
Method: as §1, §5, §3
as §4, with “(3) RAF=CLint{probe,pHLM}/CLint{probe,Supersome} (4) Contribution of UGTs=CLint(wushanica ritin,UGTs)/CLint(wushanica ritin,pHLM)×RAF” left out

[5] = Glucuronidation by monkey liver microsomes (MkLM); format: in vitro ADME; conditions: for Km: monkey, liver microsomes, read-out: Km or S50; for Ki: substrate inhibition constant
Method: as §1, §3

[6] = Glucuronidation by dog liver microsomes (DLM); format: in vitro ADME; conditions: for Km: dog, liver microsomes, read-out: Km or S50; for Ki: substrate inhibition constant
Method: as §1, §3

[7] = Glucuronidation by guinea pig liver microsomes (GpLM); format: in vitro ADME; conditions: for Km: guinea pig, liver microsomes, read-out: Km or S50
Method: as §1, §3

[8] = parameters: method as in PMID 21968061; conditions: DPPH radical scavenging (antioxidant activity); cited from earlier work
[9] = human, pH 7.4
Method: Wushanicaritin was incubated with HLM, HIM and expressed UGTs enzymes to determine the rates of glucuronidation as published previously [12, 23, 31]. Briefly, the incubation mixture mainly contained 50 mM Tris-hydrochloric acid buffer (pH 7.4), 0.88 mM MgCl2, 22 µg/mL alamethicin, 4.4 mM saccharolactone and 3.5 mM UDPGA [32]. The reaction was terminated by adding ice-cold acetonitrile. The samples were vortexed and centrifuged at 13,800× g for 10 min. The supernatant was subjected to UPLC/Q-TOF-MS (Waters Corporation, Manchester, UK) analysis. […] Similarly, wushanicaritin was incubated with DLM, RLM, MkLM, RaLM and GpLM in the same way as for HLM. All experiments were performed in triplicate. Preliminary experiments were performed to ensure that the rates of glucuronidation were determined under linear conditions with respect to the incubation time and protein concentration.
Serial concentrations of wushanicaritin (0.156–20 µM) were incubated with HLM, HIM and expressed UGTs enzymes to determine wushanicaritin glucuronidation rates. […] Appropriate models were selected by visual inspection of the Eadie–Hofstee plot [34]. Model fitting and parameter estimation were performed by GraphPad Prism V5 software (GraphPad Software, Inc., San Diego, CA, USA).
V is the formation rate of the product. Vmax is the maximal velocity. Km is the Michaelis constant, and [S] is the substrate. […]

[10] = Glucuronidation by rabbit liver microsomes (RaLM); format: in vitro ADME; conditions: for Km: rabbit, liver microsomes, read-out: Km or S50
Method: as §1, §3

[11] = biological target: T4, expressed human UGT1A1 (Homo sapiens, UniProt P22309); experiment: Glucuronidation by expressed UGT1A1; conditions: substrate inhibition constant; formation of G1 (3-O-glucuronide); UGT1A1
T4 sequence (P22309 26-533): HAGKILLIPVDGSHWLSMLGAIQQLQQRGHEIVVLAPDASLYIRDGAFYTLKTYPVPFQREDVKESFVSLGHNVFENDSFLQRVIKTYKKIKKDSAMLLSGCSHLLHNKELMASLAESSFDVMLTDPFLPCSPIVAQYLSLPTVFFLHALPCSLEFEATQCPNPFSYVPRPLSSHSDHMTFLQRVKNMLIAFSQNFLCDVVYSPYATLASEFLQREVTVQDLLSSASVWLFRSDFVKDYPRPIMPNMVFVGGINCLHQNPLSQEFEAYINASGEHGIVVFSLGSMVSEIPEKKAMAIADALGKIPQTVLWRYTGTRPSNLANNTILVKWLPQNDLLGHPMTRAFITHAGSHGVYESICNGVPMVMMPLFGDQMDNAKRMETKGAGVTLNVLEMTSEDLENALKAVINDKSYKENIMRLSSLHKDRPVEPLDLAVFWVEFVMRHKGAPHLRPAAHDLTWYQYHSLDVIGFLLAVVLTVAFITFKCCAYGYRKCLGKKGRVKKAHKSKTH
Method: as §1, §2, §3, §4

[12] = Glucuronidation by rat liver microsomes (RLM); format: in vitro ADME; conditions: for Km: rat, liver microsomes, read-out: Km or S50; for Ki: substrate inhibition constant
Method: as §1, §3

[13] = Glucuronidation by human intestine microsomes (HIM); format: in vitro ADME; conditions: for Km: human, intestine microsomes, read-out: Km or S50
Method: as §1, §3

[14] = substrate: COc1ccc(-c2oc3c(CCC(C)(C)O)c(O)cc(O)c3c(=O)c2O)cc1; experiment: not read; conditions: UGT1A9, pH 7.4
Method: Briefly, the incubation mixture mainly contained 50 mM Tris-hydrochloric acid buffer (pH 7.4), 0.88 mM MgCl2, 22 µg/mL alamethicin, 4.4 mM saccharolactone and 3.5 mM UDPGA [32]. The reaction was terminated by adding ice-cold acetonitrile. […] The supernatant was subjected to UPLC/Q-TOF-MS (Waters Corporation, Manchester, UK) analysis. […] All experiments were performed in triplicate. Preliminary experiments were performed to ensure that the rates of glucuronidation were determined under linear conditions with respect to the incubation time and protein concentration.
Appropriate models were selected by visual inspection of the Eadie–Hofstee plot [34]. Model fitting and parameter estimation were performed by GraphPad Prism V5 software (GraphPad Software, Inc., San Diego, CA, USA).
V is the formation rate of the product. Vmax is the maximal velocity. Km is the Michaelis constant, and [S] is the substrate. Ksi is the substrate inhibition constant. The intrinsic clearance (CLint) was derived by Vmax/Km for the Michaelis–Menten and substrate inhibition models [12]. (1) V=Vmax ×[S]/Km+[S] (2) V=Vmax ×[S]/Km + [S](1+[S]/Ksi)
The contribution of individual expressed UGT enzymes to wushanicaritin glucuronidation in HLM was evaluated by the relative activity factor (RAF) approach as described in previous studies [2, 12]. The relative activity factor was defined as the activity ratio of HLM to an expressed UGT enzyme (Supersome) toward a probe substrate for this enzyme using Equation (3). The relative amount of wushanicaritin glucuronidation in HLM attributed to an expressed UGT enzyme was estimated by multiplying the glucuronidation activity (i.e., the intrinsic clearance) derived with this enzyme by the corresponding RAF. […] The contributions of individual UGT enzyme were calculated according to Equation (4). (3) RAF=CLint{probe,pHLM}/CLint{probe,Supersome} (4) Contribution of UGTs=CLint(wushanica ritin,UGTs)/CLint(wushanica ritin,pHLM)×RAF

[15] = substrate: CC(C)c1cccc(C(C)C)c1O; experiment: not read; conditions: other: probe substrate glucuronidation; UGT1A9; pH 7.4
[16] = probe substrate glucuronidation
[17] = probe substrate glucuronidation, read-out: Km
[18] = formation of G1 (3-O-glucuronide)
[19] = formation of G2 (7-O-glucuronide)
[20] = pH 7.4, formation of G1 (3-O-glucuronide)
[21] = pH 7.4, formation of G2 (7-O-glucuronide)
[22] = other: formation of G1 (3-O-glucuronide)
[23] = other: formation of G2 (7-O-glucuronide)

Molecule: Cc1cn([C@H]2C[C@H](N=[N+]=[N-])[C@@H](CO)O2)c(=O)[nH]c1=O [AZT, zidovudine, reference compound]
Km [1]: 1600 ± 121 µM
microsomal CLint ([1]; expressed UGT2B7 (Supersome)): 0.26 ± 0.02 µL/min/mg
microsomal CLint [2, 16]: 0.27 ± 0.02 µL/min/mg
Km [2, 17]: 4360 ± 341 µM
Vmax [2, 16]: 1.18 ± 0.53 nmol/min/mg

Molecule: C[C@H](CCC(=O)O)[C@H]1CC[C@H]2[C@@H]3[C@H](O)C[C@@H]4C[C@H](O)CC[C@]4(C)[C@H]3CC[C@]12C [CDCA, chenodeoxycholic acid, reference compound]
microsomal CLint [2, 16]: 8.86 ± 0.74 µL/min/mg
Km [2, 17]: 14.3 ± 1.16 µM
Vmax [2, 16]: 0.13 ± 0.003 nmol/min/mg
RAF [3]: 0.48
microsomal CLint [4]: 18.5 ± 1.28 µL/min/mg

Km [5, 20]: 1.58 ± 0.25 µM
Km [5, 21]: 0.94 ± 0.08 µM
Ki [5, 18]: 11.57 ± 2.15 µM
Ki [5, 19]: 36.23 ± 5.13 µM
Km [6, 20]: 1.11 ± 0.16 µM
Km [6, 21]: 1.17 ± 0.13 µM
Ki [6, 18]: 29.09 ± 6.58 µM
Ki [6, 19]: 44.14 ± 9.09 µM
Km [7, 20]: 2.53 ± 0.3 µM
Km [7, 21]: 0.93 ± 0.06 µM
species difference in hepatic glucuronidation ([9]; dog, rat, monkey, rabbit, guinea pig): up to 60.0 fold
variability of kinetic parameters, rat versus humans [9]: ≤ 2.5 fold
Km [10, 20]: 2.22 ± 0.26 µM
Km [10, 21]: 3.29 ± 0.39 µM
Km ([2]; pH 7.4, formation of G1 (3-O-glucuronide), read-out: Km or S50): 1.07 ± 0.13 µM
Km ([2]; pH 7.4, formation of G2 (7-O-glucuronide), read-out: Km or S50): 0.5 ± 0.08 µM
Ki ([2]; substrate inhibition constant, formation of G1 (3-O-glucuronide)): 32.99 µM and 32.990 ± 6.717 µM
Ki [11]: 17.150 ± 4.478 µM
Km [12, 20]: 0.66 ± 0.06 µM
Km [12, 21]: 0.45 ± 0.03 µM
Ki [12, 18]: 37.11 ± 5.82 µM
Ki [12, 19]: 44.22 ± 5.42 µM
Km [13, 20]: 4.24 ± 0.75 µM
Km [13, 21]: 5.91 ± 1.1 µM
Molecule: COc1ccc(-c2oc3c(CCC(C)(C)O)c(O)cc(O)c3c(=O)c2O)cc1 [wushanicaritin]
Vmax [5, 18]: 0.22 ± 0.02 nmol/min/mg
Vmax [5, 19]: 0.21 ± 0.008 nmol/min/mg
Vmax [6, 18]: 0.19 ± 0.01 nmol/min/mg
Vmax [6, 19]: 0.32 ± 0.02 nmol/min/mg
Vmax [7, 18]: 0.05 ± 0.002 nmol/min/mg
Vmax [7, 19]: 1.43 ± 0.06 nmol/min/mg
IC50 [8]: 35.3 µM
Vmax [10, 18]: 0.11 ± 0.004 nmol/min/mg
Vmax [10, 19]: 0.56 ± 0.02 nmol/min/mg
Vmax [2, 18]: 1.34 nmol/min/mg and 1.34 ± 0.08 nmol/min/mg
Vmax [2, 19]: 0.35 nmol/min/mg and 0.35 ± 0.01 nmol/min/mg
Vmax [12, 18]: 0.34 ± 0.01 nmol/min/mg
Vmax [12, 19]: 0.37 ± 0.009 nmol/min/mg
Vmax [13, 18]: 0.74 nmol/min/mg and 0.74 ± 0.05 nmol/min/mg
Vmax [13, 19]: 1.34 nmol/min/mg and 1.34 ± 0.10 nmol/min/mg

B1: expressed human UGT1A9 (Homo sapiens) (protein)
chain: GKLLVVPMDGSHWFTMRSVVEKLILRGHEVVVVMPEVSWQLGRSLNCTVKTYSTSYTLEDLDREFKAFAHAQWKAQVRSIYSLLMGSYNDIFDLFFSNCRSLFKDKKLVEYLKESSFDAVFLDPFDNCGLIVAKYFSLPSVVFARGILCHYLEEGAQCPAPLSYVPRILLGFSDAMTFKERVRNHIMHLEEHLLCHRFFKNALEIASEILQTPVTEYDLYSHTSIWLLRTDFVLDYPKPVMPNMIFIGGINCHQGKPLPMEFEAYINASGEHGIVVFSLGSMVSEIPEKKAMAIADALGKIPQTVLWRYTGTRPSNLANNTILVKWLPQNDLLGHPMTRAFITHAGSHGVYESICNGVPMVMMPLFGDQMDNAKRMETKGAGVTLNVLEMTSEDLENALKAVINDKSYKENIMRLSSLHKDRPVEPLDLAVFWVEFVMRHKGAPHLRPAAHDLTWYQYHSLDVIGFLLAVVLTVAFITFKCCAYGYRKCLGKKGRVKKAHKSKTH
K0.5 [14, 22]: 0.32 ± 0.03 µM
Vmax [14, 22]: 8e-05 µmol/min/mg
Vmax/Km [14, 22]: 240 µL/min/mg
K0.5 [14, 23]: 0.39 ± 0.06 µM
Vmax [14, 23]: 0.00011 µmol/min/mg
Vmax/Km [14, 23]: 270 µL/min/mg
Km [15]: 45.91 ± 5.91 µM

Reference: article PMC5618632, “In Vitro Glucuronidation of Wushanicaritin by Liver Microsomes, Intestine Microsomes and Expressed Human UDP-Glucuronosyltransferase Enzymes” (International Journal of Molecular Sciences, 2017)
